This is an account of results in patent US20250099431A1, “GLP-1R MODULATING COMPOUNDS” (priority 2020, published 2025).

Data set [1] concerns the target GLP-1R (Homo sapiens (Human), UniProt P43220). As to the kind of experiment: GLP-1R activation: cAMP increase in CHO cells stably expressing GLP-1R. It is filed as cell-based. The note with it: cAMP increase, 10 point dose response, 30 minutes incubation at 37° C., read-out: EC50. As for the experimental part: GLP-1R activation by a compound of the present disclosure was quantified by measuring cAMP increase in CHO cells stably expressing GLP-1R (MultiSpan product #C1267-1a). […] The cells were then incubated overnight at 37° C., 5% CO2. […] 1% BSA (Rockland Immunochemicals product #BSA-1000)). Following the medium change, the cells were incubated for 1 hour at 37° C., 5% CO2. The tested GLP-1 compound was added to the cells in a 10 point dose response followed by a 30 minutes incubation at 37° C., 5% CO2. cAMP concentration increase was then detected using Cisbio's cAMP Gs Dynamic Kit (product #62AM4PEC) according to the manufacturer's protocol. The response was plotted against the log of the agonist concentration and fitted to a sigmoidal equation to determine the EC50.

A short description of data set [2]: Microsomal stability (liver microsomal assay, mixed cofactors); predicted hepatic clearance. The note with it: liver microsomes 1.0 mg protein/mL (+UDPGA +NADPH), 1 μM analyte, 37° C.; scaled with human liver weight and hepatic blood flow 1.3 L/hr/kg. It is filed as in vitro ADME. The protocol: Metabolic stability of compounds was assessed using human or rat liver microsomal assays (Corning). In these assays, 10 nL of each analyte at a concentration of 1 mM in 100% DMSO was dispensed into a well of a polypropylene plates using the Echo 550 acoustic liquid dispenser (Labcyte®). Each plate contained 384 wells with a single analyte in each well.
A solution of human (Corning® Gentest™ Human Mixed Pooled Microsomes or rat (Corning® Gentest™ Rat [Sprague-Dawley] Pooled Liver Microsomes) liver microsomes at 2 mg/ml in 100 mM K2HPO4/KH2PO4 at pH 7. 4 was combined with alamethicin from Trichoderma viride (Sigma-Aldrich) 0.0225 mg/ml. The mixture was incubated on ice for 15 minutes. 5 μL of this mixture was added to individual wells following a 15 minute incubation at room temperature and supplemented with 5 μL NADPH Regenerating Solution of cofactors (Corning® Gentest™ UGT Reaction Mix) containing 100 mM K2HPO4/KH2PO4 at pH 7.4, 2.6 mM NADP+, 6.6 mM glucose-6-phosphate, 6.6 mM MgCl2, 0.8 U/mL glucose-6-phosphate dehydrogenase, 0.1 mM sodium citrate, and 6.8 mM uridine diphosphate-glucuronic acid. The final concentration of each analyte compound at the beginning of the reaction was 1 μM. The reactions were incubated at 37° C. and samples were collected at time points of 0, 5, 15, 30, 40, 50, 60, and 70 minutes for further analysis. Background data were collected using reactions without analyte compounds.
Upon collection of the sample time points, samples were quenched with 30 μL of a solution of 72% acetonitrile, 8% methanol, 0.1% formic acid, 19.9% water, and internal standard (IS). Reaction plates were spun in a centrifuge at speed of 4,000 rcf for 30 minutes at 4° C., following a dilution of the 10 μL quenched reaction into 40 μL de-ionized water, yielding assay plates.
Assay plates were analyzed using solid-state extraction coupled with quadrupole time-of-flight mass spectrometer, using Agilent QToF 6530 RapidFire 360 system, with C4 type A solid state cartridges. Analysis was performed in either positive or negative ionization modes. Mobile phases contained 0.1% formic acid in water for loading analytes onto solid state extraction cartridges and 0.1% formic acid in acetonitrile for elution into a mass spectrometer in positive ionization mode, or 0.1% acetic acid in water for loading and 0.1% acetic acid in acetonitrile for extraction in negative ionization mode. Peak-area ratios of integrated counts for individual compounds to IS were plotted as semi-logarithmic chart of log vs time. The initial linear portion of decay was fitted to a linear regression equation to derive the half-time of analyte decay.
Pharmacological parameters for an analyte compound metabolism were calculated using the following equations: […]
wherein concentration refers to the protein concentration (mg/ml) in the reaction.
This scales the in vitro intrinsic clearance up to the value that would be predicted for the entire mass of liver tissue (but with no restriction by blood flow). The value depends upon the size of the liver (species-dependent) and the yield of microsomal protein as appropriate (assumed to be species-independent).
Hepatic clearance will depend upon the inter-relationship of intrinsic clearance and hepatic blood flow and was predicted from in vitro data using a variety of approaches.
The hepatic extraction is reported as the predicted clearance expressed as a proportion of hepatic blood flow.

Sequence of GLP-1R (P43220 24-463): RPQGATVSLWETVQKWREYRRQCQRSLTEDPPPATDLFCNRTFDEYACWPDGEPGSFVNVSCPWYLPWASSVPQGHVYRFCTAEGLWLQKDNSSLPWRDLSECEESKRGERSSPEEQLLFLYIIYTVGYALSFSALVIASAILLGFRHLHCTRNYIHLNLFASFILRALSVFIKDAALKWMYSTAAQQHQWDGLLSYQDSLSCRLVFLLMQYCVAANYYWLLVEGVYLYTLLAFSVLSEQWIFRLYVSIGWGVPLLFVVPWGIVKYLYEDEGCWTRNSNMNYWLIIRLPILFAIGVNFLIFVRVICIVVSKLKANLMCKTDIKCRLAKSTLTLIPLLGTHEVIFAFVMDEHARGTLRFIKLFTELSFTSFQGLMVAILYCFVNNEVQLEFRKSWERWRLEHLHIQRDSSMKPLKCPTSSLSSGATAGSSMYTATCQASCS

As for `COCCn1c(Cc2ccc(-c3cccc4c3OC(c3ccc(C#N)cc3F)O4)cc2F)nc2ccc(C(=O)O)cc21` (stereo not drawn) [Example 4, 2-(4-(2-(4-cyano-2-fluorophenyl)benzo[d][1, 3]dioxol-4-yl)-2-fluorobenzyl)-1-(2-methoxyethyl)-1H-benzo[d]imidazole-6-carboxylic acid], the EC50 in data set [1] was 103 nM. Besides, the “Predicted Hepatic Clearance (Pred. Cl.)” value in data set [2] was 4.17 mL/min/kg.
In the case of `COCCn1c(Cc2c(F)cc(-c3cccc4c3OC(c3ccc(C#N)cc3F)O4)cc2F)nc2ccc(C(=O)O)cc21` (stereo not drawn) [Example 5, 2-(4-(2-(4-cyano-2-fluorophenyl)benzo[d][1, 3]dioxol-4-yl)-2,6-difluorobenzyl)-1-(2-methoxyethyl)-1H-benzo[d]imidazole-6-carboxylic acid], the EC50 in data set [1] came to 161 nM. Moreover, in data set [2], the “Predicted Hepatic Clearance (Pred. Cl.)” value was <1.83 mL/min/kg.
The matching figures for `COCCn1c(Cc2ccc(-c3cccc4c3OC(c3ccc(C#N)cc3)O4)cc2F)nc2ccc(C(=O)O)cc21` (stereo not drawn) [Example 6, 2-(4-(2-(4-cyanophenyl)benzo[d][1, 3]dioxol-4-yl)-2-fluorobenzyl)-1-(2-methoxyethyl)-1H-benzo[d]imidazole-6-carboxylic acid]: 219 nM and 4.83 mL/min/kg.
The matching figures for `COCCn1c(Cc2ccc(-c3cccc4c3OC(c3ccccc3)C4)cc2F)nc2ccc(C(=O)O)cc21` (stereo not drawn) [Example 7, 2-(2-fluoro-4-(2-phenyl-2,3-dihydrobenzofuran-7-yl)benzyl)-1-(2-methoxyethyl)-1H-benzo[d]imidazole-6-carboxylic acid]: 530 nM and 7.5 mL/min/kg.
For `COCCn1c(Cc2ccc(-c3cccc4c3OC(C)(c3ccc(Cl)cc3F)O4)s2)nc2ccc(C(=O)O)cc21` (stereo not drawn) [Example 8, 2-((5-(2-(4-chloro-2-fluorophenyl)-2-methylbenzo[d][1, 3]dioxol-4-yl)thiophen-2-yl)methyl)-1-(2-methoxyethyl)-1H-benzo[d]imidazole-6-carboxylic acid], the EC50 in data set [1] came out at 78 nM. For the same compound, the “Predicted Hepatic Clearance (Pred. Cl.)” value in data set [2] was 7.83 mL/min/kg.
The like results for `CC1(c2ccc(Cl)cc2F)Oc2cccc(-c3cc(F)c(Cc4nc5c(F)cc(C(=O)O)cc5n4CC4(CC(N)=O)CC4)c(F)c3)c2O1` (stereo not drawn) [Example 9, 1-((1-(2-amino-2-oxoethyl)cyclopro-pyl)methyl)-2-(4-(2-(4-chloro-2-fluorophenyl)-2-methylbenzo[d][1, 3]dioxol-4-yl)-2,6-difluorobenzyl)-4-fluoro-1H-benzo[d]imidazole-6-carboxylic acid] were, in that order, 8.6 nM and 2.5 mL/min/kg.
The like results for `COCCn1c(Cc2c(F)cc(-c3cccc4c3OC(CCC(=O)O)(c3ccc(Cl)cc3)N4)cc2F)nc2ccc(C(=O)O)cc21` (stereo not drawn) [Example 10, 2-(4-(2-(2-carboxyethyl)-2-(4-chlorophenyl)-2,3-dihydrobenzo[d]oxazol-7-yl)-2,6-difluorobenzyl)-1-(2-methoxyethyl)-1H-benzo[d]imidazole-6-carboxylic acid] were, in that order, 130 nM and 12.7 mL/min/kg.
The matching figures for `COCCn1c(Cc2c(F)cc(-c3cccc4c3OC(C)(c3ccc(C#N)s3)O4)cc2F)nc2ccc(C(=O)O)cc21` (stereo not drawn) [Example 11, 2-(4-(2-(5-cyanothiophen-2-yl)-2-methylbenzo[d][1, 3]dioxol-4-yl)-2,6-difluorobenzyl)-1-(2-methoxyethyl)-1H-benzo[d]imidazole-6-carboxylic acid]: 34 nM and 7.17 mL/min/kg.
For `CC1(c2ccc(Cl)cn2)Oc2cccc(-c3cc(F)c(Cc4nc5ccc(C(=O)O)cc5n4CC4(CF)CC4)c(F)c3)c2O1` (stereo not drawn) [Example 12, 2-(4-(2-(5-chloropyridin-2-yl)-2-methylbenzo[d][1, 3]dioxol-4-yl)-2,6-difluorobenzyl)-1-((1-(fluoromethyl)cyclo-propyl)methyl)-1H-benzo[d]imidazole-6-carboxylic acid], the EC50 in data set [1] worked out at 2.4 nM. Besides, the “Predicted Hepatic Clearance (Pred. Cl.)” value in data set [2] was 4 mL/min/kg.
As to `CC1(c2ccc(Cl)cc2F)Oc2cccc(-c3cc(F)c(Cc4nc5c(F)cc(C(=O)O)cc5n4CC4(CC#N)CC4)c(F)c3)c2O1` (stereo not drawn) [Example 13, 2-(4-(2-(4-chloro-2-fluorophenyl)-2-methylbenzo[d][1, 3]dioxol-4-yl)-2,6-difluorobenzyl)-1-((1-(cyanomethyl)cyclo-propyl)methyl)-4-fluoro-1H-benzo[d]imidazole-6-carboxylic acid], the EC50 in data set [1] was found to be 0.41 nM. In data set [2], the “Predicted Hepatic Clearance (Pred. Cl.)” value was <1.83 mL/min/kg.
As for `CC1(c2ccc(Cl)cn2)Oc2cccc(-c3cnc(Cc4nc5ccc(C(=O)O)cc5n4C[C@@H]4CCO4)c(F)c3)c2O1` (stereo partly drawn) [Example 14, 2-((5-(2-(5-chloropyridin-2-yl)-2-methylbenzo[d][1, 3]dioxol-4-yl)-3-fluoropyridin-2-yl)methyl)-1-(((S)-oxetan-2-yl)methyl)-1H-benzo[d]imidazole-6-carboxylic acid], the EC50 in data set [1] is 4.5 nM. Further, the “Predicted Hepatic Clearance (Pred. Cl.)” value in data set [2] is 2.5 mL/min/kg.
For `CC1(c2ccc(Cl)cc2F)Oc2cccc(-c3ccc(Cc4nc5ccc(C(=O)O)cc5n4C[C@@H]4CCO4)cc3F)c2O1` (stereo partly drawn) [Example 15, 2-(4-(2-(4-chloro-2-fluorophenyl)-2-methylbenzo[d][1, 3]dioxol-4-yl)-3-fluorobenzyl)-1-(((S)-oxetan-2-yl)methyl)-1H-benzo[d]imidazole-6-carboxylic acid], the EC50 in data set [1] turned out to be 0.015 nM. Further, the “Predicted Hepatic Clearance (Pred. Cl.)” value in data set [2] is 4.5 mL/min/kg.
Regarding `COCCn1c(Cc2c(F)cc(-c3cccc4c3OC3(c5ccc(Cl)cc5)CCCN43)cc2F)nc2ccc(C(=O)O)cc21` (stereo not drawn) [Example 16, 2-(4-(3a-(4-chlorophenyl)-1,2,3,3a-tetrahydrobenzo[d]pyrrolo[2,1-b]oxazol-5-yl)-2,6-difluorobenzyl)-1-(2-methoxyethyl)-1H-benzo[d]imidazole-6-carboxylic acid], the EC50 in data set [1] is 6920 nM. The “Predicted Hepatic Clearance (Pred. Cl.)” value in data set [2] was 9 mL/min/kg.
The matching figures for `COCCn1c(Cc2c(F)cc(-c3cccc4c3OC3(c5ccc(Cl)cc5)CCC(=O)N43)cc2F)nc2ccc(C(=O)O)cc21` (stereo not drawn) [Example 17, 2-(4-(3a-(4-chlorophenyl)-1-oxo-1,2,3,3a-tetrahydrobenzo[d]pyrrolo[2,1-b]oxazol-5-yl)-2,6-difluorobenzyl)-1-(2-methoxyethyl)-1H-benzo[d]imidazole-6-carboxylic acid]: 10000 nM and 7.33 mL/min/kg.
The matching figures for `CC1(c2ccc(Cl)cc2F)Oc2cccc(-c3cc(F)c(Cc4nc5ccc(C(=O)O)cc5n4C[C@@H]4CCO4)c(C#N)c3)c2O1` (stereo partly drawn) [Example 18, 2-(4-(2-(4-chloro-2-fluorophenyl)-2-methylbenzo[d][1, 3]dioxol-4-yl)-2-cyano-6-fluorobenzyl)-1-(((S)-oxetan-2-yl)methyl)-1H-benzo[d]imidazole-6-carboxylic acid]: 0.14 nM and 8 mL/min/kg.

Usually EC50 stands for the concentration at which the effect is half-maximal.
